Experimental data published in patent US11220693B2, “Method for converting monocot plant genome sequence in which nucleic acid base in targeted DNA sequence is specifically converted, and molecular complex used therein” (NATIONAL UNIVERSITY CORPORATION KOBE UNIVERSITY, priority 2015, dated 2022).

How the values were obtained:
[1] = system: rice (Oryza sativa. L Japonica brand; Nipponbare) seeds; assay: Effective concentration of Imazamox on rice plant body under aseptic culture conditions (seed germination); type: in vivo
Method: Based on 1/2 MS solid medium (MS mix (Sigma), sucrose 15.0 g/L, Gelrite (Wako Pure Chemical Industries, Ltd.) 4.0 g/L, pH 5.8), media in 9 stages (0 mg/L, 0.5 mg/L, 1 mg/L, 2 mg/L, 4 mg/L, 5 mg/L, 10 mg/L, 20 mg/L, 30 mg/L) with different Imazamox concentrations were produced. Successively, chaff of rice (Oryza sativa. L Japonica brand; Nipponbare) seeds was removed, the seeds were shaken in 70% ethanol for 1 min, and sterilized by immersing in 2.5% sodium hypochlorite for 20-30 min while allowing for penetration. […]
From the above, it was determined that the effective concentration of Imazamox under the aseptic culture conditions for rice plant body was 0.5 mg/L.

rice callus = assay: Effective concentration of Imazamox on rice callus under aseptic culture conditions; type: cell-based, Oryza sativa; conditions: 2N6 medium, 28 days; for proliferation state of the callus: 31.5° C.
Method: Based on 2N6 solid medium (mentioned earlier), media in 4 stages (0 mg/L, 30 mg/L, 50 mg/L, 70 mg/L) with different Imazamox concentrations were produced. Callus was induced from the scutellum part of rice seed (mentioned earlier), inoculated to 2N6 solid medium added with Imazamox, cultured at 31.5° C. for 28 days in the dark all day, and the proliferation state of the callus was confirmed.
From the above, it was determined that the effective concentration of Imazamox for rice callus was 70 mg/L.

Structure (SMILES): COCc1cnc(C2=NC(C)(C(C)C)C(=O)N2)c(C(=O)O)c1 (stereo not drawn) [Imazamox]
- number of seeds, germination (7 days later) ([1]; Imazamox 0.5 mg/L in 1/2 MS medium, 24 seeds): 0
- germination circumstances ([1]; Imazamox 0.5 mg/L or more, 25° C., 7 days): browning of embryo stem and whitening of coleoptile was confirmed in all seeds
- survival rate (%) ([1]; Imazamox 0.5 mg/L, 7 days): 0%
- number of seeds, germination (7 days later) ([1]; Imazamox 1 mg/L in 1/2 MS medium, 23 seeds): 0
- survival rate (%) ([1]; Imazamox 1 mg/L, 7 days): 0%
- number of seeds, germination (7 days later) ([1]; Imazamox 2 mg/L in 1/2 MS medium, 24 seeds): 0
- survival rate (%) ([1]; Imazamox 2 mg/L, 7 days): 0%
- number of seeds, germination (7 days later) ([1]; Imazamox 4 mg/L in 1/2 MS medium, 24 seeds): 0
- survival rate (%) ([1]; Imazamox 4 mg/L, 7 days): 0%
- number of seeds, germination (7 days later) ([1]; Imazamox 5 mg/L in 1/2 MS medium, 24 seeds): 0
- survival rate (%) ([1]; Imazamox 5 mg/L, 7 days): 0%
- number of seeds, germination (7 days later) ([1]; Imazamox 10 mg/L in 1/2 MS medium, 24 seeds): 0
- survival rate (%) ([1]; Imazamox 10 mg/L, 7 days): 0%
- number of seeds, germination (7 days later) ([1]; Imazamox 20 mg/L in 1/2 MS medium, 24 seeds): 0
- survival rate (%) ([1]; Imazamox 20 mg/L, 7 days): 0%
- number of seeds, germination (7 days later) ([1]; Imazamox 30 mg/L in 1/2 MS medium, 24 seeds): 0
- survival rate (%) ([1]; Imazamox 30 mg/L, 7 days): 0%
- effective concentration of Imazamox for rice plant body ([1]; aseptic culture conditions, 1/2 MS medium, 7 days): 0.5 mg/L
- effective concentration of Imazamox for rice callus (rice callus): 70 mg/L
- proliferation state of the callus (rice callus; Imazamox 50 mg/L or below): mitotic proliferation of callus was observed
- proliferation state of the callus (rice callus; Imazamox 70 mg/L): mitotic proliferation was inhibited
